Reference: US10780145B2, “In situ forming hydrogel and method using same” (Arizona Board of Regents on behalf of Arizona State …, priority 2011, dated 2020)

How the values were obtained:
[1] = Swelling and degradation of gels in excess PBS (pH 7.4) at 37° C.; assay type: physicochemical
Description: The control copolymer comprises […] of JAAm. […] These gels dissolve in approximately 20 weeks.
Gels flow when inverted after 7-10 days and dissolve completely within 2-3 weeks.

[2] = Solubility of vancomycin loaded into the polymer solution; assay type: physicochemical; details: loaded at 50 mg/mL
Method: To prepare a solution for antibiotic delivery, the materials can be sterilized (such as by ethylene oxide gas sterilization) and then dissolved in 150 mM phosphate buffered saline (pH 7.4). After dissolution of the polymer, drug powder (finely ground) is added directly to the polymer solution and vortex mixed to distribute the drug evenly throughout the solution. The solutions can be stored in a freezer until use and thawed at the time of use. The solution then can be injected, brushed, poured, sprayed, or otherwise administered as a liquid at the desired site. The solution can also be allowed to warm to above its initial LCST and then implanted as a soft hydrogel at the desired site. Examples of desired sites for delivery of this material might include the surface of a joint prosthesis, the intramedullary canal before implantation of a prosthesis, an infected area, or any location deemed to have a risk of future infection. An example formulation might be a 30 wt % polymer solution with approximately 50 mg vancomycin hydrochloride loaded per mL of polymer solution.
FIG. 7 graphically illustrates a fraction of loaded vancomycin released from Applicants' injectable and degradable terpolymer I based gels comprising poly(NIPAAm-co-DBLA-co-JAAm) gels loaded with either 50 mg or 5 mg per gel.

Molecule | Degradation time (37° C., pH 7.4) [1] | solubility in polymer solution [2]
poly(NIPAAm-co-DBLA) | ~20 weeks | –
CN[C@H](CC(C)C)C(=O)N[C@H]1C(=O)N[C@@H](CC(N)=O)C(=O)N[C@H]2C(=O)N[C@H]3C(=O)N[C@H](C(=O)N[C@H](C(=O)O)c4cc(O)cc(O)c4-c4cc3ccc4O)[C@H](O)c3ccc(c(Cl)c3)Oc3cc2cc(c3O[C@@H]2O[C@H](CO)[C@@H](O)[C@H](O)[C@H]2O[C@H]2C[C@](C)(N)[C@H](O)[C@H](C)O2)Oc2ccc(cc2Cl)[C@H]1O [vancomycin] | – | Some vancomycin is insoluble
